The values below come from patent US10188634B2, “3-(3H-imidazo[4,5-C]pyridin-2-yl)-1 H-pyrazolo[4,3-B]pyridines and therapeutic uses thereof” (Samumed, LLC, priority 2015, dated 2019).

Holding throughout (format): cell-based
In experiment [1] the test system is Wnt activity (Sp5-Luc reporter, human Sp5 promoter with eight TCF/LEF binding sites) in SW480 colon carcinoma cells. Nature of the experiment: Screening assay for Wnt activity: Sp5-Luc reporter gene assay in SW480 cells. To be noted: for inhibition at 10 µM: read-out: percent inhibition at 10 μM (given for EC50 of >10 μM); for EC50: 10-point dose-response starting from 10 μM, overnight incubation. The gist of the method: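 SW480 cells stably carrying Sp5-Luc reporter (eight TCF/LEF sites) plated at 4,000/well in 1% FBS medium with compound (10-point 1:3 series from 10 μM, 0.1% DMSO) overnight at 37 °C. BrightGlo luminescence normalized to DMSO; EC50 by four-parameter fit, else % inhibition at 10 μM.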
(In general: Reporter assays use an easily measured gene product as a stand-in for the process of interest.)

A further experiment deals with SW480 colon cancer cells. Nature of the experiment: Cell viability assay (CellTiter-Blue) in SW480 colon cancer cells. The settings on record: Homo sapiens, 96 h; for inhibition at 10 µM: four days, CellTiter-Blue, read-out: percent inhibition at 10 μM (given for EC50 of >10 μM); for EC50: four days incubation, CellTiter-Blue cell viability. The gist of the method:
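About 2×10^3 SW480 colon cancer cells per well were exposed to compound (8-point 1:3 dilutions, 10 μM to 0.004 μM) for four days at 37 °C. Viability was read by CellTiter-Blue resazurin reduction (~3 h, Ex 560/Em 590). EC50 from nonlinear regression; above 10 μM, % inhibition at 10 μM is reported.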

In another experiment the test system is IL-6 in THP-1 cells. Nature of the experiment: Inhibition of IL-6 in LPS-stimulated THP-1 human monocyte cells (HTRF). To be noted: IL-6 HTRF; for EC50: 500 ng/mL LPS, 22 hours; for inhibition at 10 µM: LPS, read-out: percent inhibition in brackets (given for EC50 >10 μM). The essentials: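 THP-1 cells, serum-reduced (1% FBS) for 24 h, were exposed to compound (1:3, 10-point series from 10 μM; 0.1% DMSO) for 2 h, then 500 ng/mL LPS for 22 h at 37° C. Secreted IL-6 measured by HTRF (665/620 ratio), normalised to DMSO; EC50 by four-parameter fit, else % inhibition at 10 μM.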
A general note: Time-resolved FRET reads energy transfer from a long-lived donor to a nearby acceptor.

The term inhibition denotes the drop in the measured response relative to a control, in per cent. For orientation: EC50 means the concentration at which the effect is half-maximal. A lower EC50 goes with greater potency.

Molecules are shown by their SMILES.

As to `CS(=O)(=O)NCc1cc(F)cc(-c2cncc3[nH]c(-c4n[nH]c5ccc(-c6cncnc6)nc45)nc23)c1` [Compound 475, N-(3-Fluoro-5-(2-(5-(pyrimidin-5-yl)-1H-pyrazolo[4,3-b]pyridin-3-yl)-3H-imidazo[4,5-c]pyridin-7-yl)benzyl)methanesulfonamide], the inhibition at 10 µM was 31.4% in experiment [1], 0.9% with SW480 colon cancer cells and 0% with IL-6 in THP-1 cells. Besides, the EC50 (in experiment [1]; in the experiment on SW480 colon cancer cells; in the experiment with IL-6 in THP-1 cells) was above 10 µM in each case.
For the compound `Cc1ccncc1-c1ccc2[nH]nc(-c3nc4c(-c5ccncc5)cncc4[nH]3)c2n1` [Compound 117, 5-(4-Methylpyridin-3-yl)-3-(7-(pyridin-4-yl)-3H-imidazo[4,5-c]pyridin-2-yl)-1H-pyrazolo[4,3-b]pyridine], the values for the inhibition at 10 µM (in experiment [1]; with SW480 colon cancer cells; in the experiment on IL-6 in THP-1 cells) were 23.1%, 2.8% and 43.5%, respectively. Further, the EC50 (in experiment [1]; with SW480 colon cancer cells; in the experiment on IL-6 in THP-1 cells) was above 10 µM in each case.
Turning to `NC1CN(c2cncc(-c3ccc4[nH]nc(-c5nc6c(-c7cccc(F)c7)cncc6[nH]5)c4n3)n2)C1` [Compound 482, 1-(6-(3-(7-(3-Fluorophenyl)-3H-imidazo[4,5-c]pyridin-2-yl)-1H-pyrazolo[4,3-b]pyridin-5-yl)pyrazin-2-yl)azetidin-3-amine], the inhibition at 10 µM in experiment [1] stood at 21%; in the experiment on SW480 colon cancer cells it was 3.8%; in the experiment with IL-6 in THP-1 cells, 40.8%. Also, the EC50 (in experiment [1]; in the experiment on SW480 colon cancer cells; in the experiment on IL-6 in THP-1 cells) was above 10 µM in each case.
For the compound `CS(=O)(=O)NCc1cc(F)cc(-c2cncc3[nH]c(-c4n[nH]c5ccc(-c6cncc(CNCc7ccccc7)c6)nc45)nc23)c1` [Compound 472, N-(3-(2-(5-(5-((Benzylamino)methyl)pyridin-3-yl)-1H-pyrazolo[4,3-b]pyridin-3-yl)-3H-imidazo[4,5-c]pyridin-7-yl)-5-fluorobenzyl)methanesulfonamide], the inhibition at 10 µM was 20.1% in experiment [1], 0% with SW480 colon cancer cells and 39.3% in the experiment on IL-6 in THP-1 cells. Further, the EC50 (in experiment [1]; with SW480 colon cancer cells; with IL-6 in THP-1 cells) was above 10 µM throughout.
For the compound `O=C(Nc1cncc(-c2ccc3[nH]nc(-c4nc5c(-c6ccncc6)cncc5[nH]4)c3n2)c1)C1CCCCC1` [Compound 135, N-(5-(3-(7-(pyridin-4-yl)-3H-imidazo[4,5-c]pyridin-2-yl)-1H-pyrazolo[4,3-b]pyridin-5-yl)pyridin-3-yl)cyclohexanecarboxamide], the inhibition at 10 µM is 1.2% in experiment [1], 1.4% with SW480 colon cancer cells and 26.6% in the experiment with IL-6 in THP-1 cells. In addition, the EC50 in experiment [1] is above 10 µM; in the experiment with SW480 colon cancer cells it was above 10 µM; in the experiment on IL-6 in THP-1 cells it was above 1 µM.
Take `c1ccc(COc2cncc(-c3ccc4[nH]nc(-c5nc6c(-c7ccncc7)cncc6[nH]5)c4n3)c2)cc1` [Compound 554, 5-(5-(Benzyloxy)pyridin-3-yl)-3-(7-(pyridin-4-yl)-3H-imidazo[4,5-c]pyridin-2-yl)-1H-pyrazolo[4,3-b]pyridine]: the values for the inhibition at 10 µM (in experiment [1]; in the experiment with SW480 colon cancer cells; with IL-6 in THP-1 cells) were 0%, 0% and 50.3%, respectively. Besides, the EC50 (in experiment [1]; in the experiment with SW480 colon cancer cells; in the experiment with IL-6 in THP-1 cells) was above 10 µM in each case.
On to `COc1cccc(-c2cncc3[nH]c(-c4n[nH]c5ccc(-c6cn[nH]c6)nc45)nc23)c1` [Compound 975, 3-(7-(3-Methoxylphenyl)-3H-imidazo[4,5-c]pyridin-2-yl)-5-(1H-pyrazol-4-yl)-1H-pyrazolo[4,3-b]pyridine], for which the inhibition at 10 µM in experiment [1] was determined as 2%; in the experiment on SW480 colon cancer cells, 4.1%; in the experiment on IL-6 in THP-1 cells it was 0%. The EC50 (in experiment [1]; with SW480 colon cancer cells; in the experiment on IL-6 in THP-1 cells) was above 10 µM in each case.
As to `Cc1cn(-c2cncc3[nH]c(-c4n[nH]c5ccc(-c6cncc(NC(=O)C7CCC7)c6)nc45)nc23)cn1` [Compound 217, N-(5-(3-(7-(4-Methyl-1H-imidazol-1-yl)-3H-imidazo[4,5-c]pyridin-2-yl)-1H-pyrazolo[4,3-b]pyridin-5-yl)pyridin-3-yl)cyclobutanecarboxamide], the inhibition at 10 µM was determined as 6.7% in experiment [1], 0% in the experiment on SW480 colon cancer cells and 36.5% in the experiment on IL-6 in THP-1 cells. Moreover, the EC50 (in experiment [1]; with SW480 colon cancer cells; with IL-6 in THP-1 cells) was above 10 µM throughout.
As to `Cn1cc(-c2ccc3[nH]nc(-c4nc5c(N6CCCCC6)cncc5[nH]4)c3n2)c(CO)n1` [Compound 1089, (1-Methyl-4-(3-(7-(piperidin-1-yl)-3H-imidazo[4,5-c]pyridin-2-yl)-1H-pyrazolo[4,3-b]pyridin-5-yl)-1H-pyrazol-3-yl)methanol], the inhibition at 10 µM in experiment [1] worked out at 24.2%; in the experiment on SW480 colon cancer cells, 15.5%. Also, the EC50 in experiment [1] was above 10 µM; in the experiment on SW480 colon cancer cells, above 10 µM; in the experiment with IL-6 in THP-1 cells, 0.52 µM.
Take `CCCC(=O)Nc1cncc(-c2ccc3[nH]nc(-c4nc5c(-c6ccncc6)cncc5[nH]4)c3n2)c1` [Compound 129, N-(5-(3-(7-(Pyridin-4-yl)-3H-imidazo[4,5-c]pyridin-2-yl)-1H-pyrazolo[4,3-b]pyridin-5-yl)pyridin-3-yl)butyramide]: the inhibition at 10 µM in experiment [1] is 0%; in the experiment on SW480 colon cancer cells, 2.8%; with IL-6 in THP-1 cells, 18.7%. Moreover, the figures for the EC50 (in experiment [1]; with SW480 colon cancer cells; with IL-6 in THP-1 cells) were above 10 µM, above 10 µM and above 1 µM, respectively.
As for `c1cc(-c2ccc3[nH]nc(-c4nc5c(-c6ccncc6)cncc5[nH]4)c3n2)ccn1` [Compound 130, 5-(pyridin-4-yl)-3-(7-(pyridin-4-yl)-3H-imidazo[4,5-c]pyridin-2-yl)-1H-pyrazolo[4,3-b]pyridine], the inhibition at 10 µM in experiment [1] was determined as 9.8%; in the experiment with SW480 colon cancer cells it was 0%; in the experiment with IL-6 in THP-1 cells, 29.3%. For the same compound, the EC50 (in experiment [1]; in the experiment with SW480 colon cancer cells; in the experiment on IL-6 in THP-1 cells) was above 10 µM each time.
For `CC(C)C(=O)Nc1cncc(-c2ccc3[nH]nc(-c4nc5c(N6CCN(C)CC6)cncc5[nH]4)c3n2)c1` [Compound 233, N-(5-(3-(7-(4-Methylpiperazin-1-yl)-3H-imidazo[4,5-c]pyridin-2-yl)-1H-pyrazolo[4,3-b]pyridin-5-yl)pyridin-3-yl)isobutyramide], the inhibition at 10 µM in experiment [1] turned out to be 6.2%; with SW480 colon cancer cells, 1%; in the experiment with IL-6 in THP-1 cells, 36.7%. The EC50 (in experiment [1]; with SW480 colon cancer cells; with IL-6 in THP-1 cells) was above 10 µM each time.
Turning to `O=C(Nc1cncc(-c2ccc3[nH]nc(-c4nc5c(-c6ccc(F)cc6)cncc5[nH]4)c3n2)c1)C1CCC1` [Compound 49, N-(5-(3-(7-(4-Fluorophenyl)-3H-imidazo[4,5-c]pyridin-2-yl)-1H-pyrazolo[4,3-b]pyridin-5-yl)pyridin-3-yl)cyclobutanecarboxamide], the inhibition at 10 µM in experiment [1] was 44%; with IL-6 in THP-1 cells, 37.7%. The EC50 in experiment [1] is above 10 µM; in the experiment with SW480 colon cancer cells, 8.68 µM; in the experiment on IL-6 in THP-1 cells, above 10 µM.
